For 1 compound, IC50, Ratio IC50 and EC50 results are on record in ChEMBL document CHEMBL4219198, “Peptidomimetic nitrile inhibitors of malarial protease falcipain-2 with high selectivity against human cathepsins” (Bioorg Med Chem Lett, 2018).

Bounds are passed on as bounds.

Assay [1] concerns the target T1, Falcipain 2 (Plasmodium falciparum, UniProt Q9N6S8).
T1 sequence (Q9N6S8 whole entry): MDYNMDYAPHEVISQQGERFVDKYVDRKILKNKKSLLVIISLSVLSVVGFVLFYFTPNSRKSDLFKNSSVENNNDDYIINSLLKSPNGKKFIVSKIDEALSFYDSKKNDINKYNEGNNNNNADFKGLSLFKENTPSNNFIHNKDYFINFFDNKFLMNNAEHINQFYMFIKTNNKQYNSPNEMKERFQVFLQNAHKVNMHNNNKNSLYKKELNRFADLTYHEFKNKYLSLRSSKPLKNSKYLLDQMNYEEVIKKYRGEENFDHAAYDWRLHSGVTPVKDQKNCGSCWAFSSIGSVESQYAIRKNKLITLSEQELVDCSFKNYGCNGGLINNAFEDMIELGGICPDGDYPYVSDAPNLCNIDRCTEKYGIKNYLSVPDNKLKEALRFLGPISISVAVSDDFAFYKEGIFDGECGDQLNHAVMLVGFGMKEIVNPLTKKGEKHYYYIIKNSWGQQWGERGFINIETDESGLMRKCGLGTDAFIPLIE
Kind of assay: Inhibition of Plasmodium falciparum falcipain-2.

The target in assay [2] is Cathepsin B (Homo sapiens, UniProt P07858). Kind of assay: Inhibition of human cathepsin B.
In assay [3] the target is T2, Cathepsin K (Homo sapiens, UniProt P43235).
T2 sequence (P43235 whole entry): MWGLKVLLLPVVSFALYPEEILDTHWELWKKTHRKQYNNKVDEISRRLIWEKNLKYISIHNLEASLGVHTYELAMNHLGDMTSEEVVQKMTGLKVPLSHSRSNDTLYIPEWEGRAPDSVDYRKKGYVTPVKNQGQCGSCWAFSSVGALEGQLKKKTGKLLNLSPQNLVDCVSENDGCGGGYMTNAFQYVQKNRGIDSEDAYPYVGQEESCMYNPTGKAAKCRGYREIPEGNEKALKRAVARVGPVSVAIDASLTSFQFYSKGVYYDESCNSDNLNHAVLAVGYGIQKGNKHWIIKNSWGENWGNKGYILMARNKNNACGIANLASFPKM
Kind of assay: Inhibition of human cathepsin K.

Assay [4] concerns the target Procathepsin L (Homo sapiens, UniProt P07711). Kind of assay: Inhibition of human cathepsin L.
For assay [5], the target named is Cathepsin S (Homo sapiens, UniProt P25774). Kind of assay: Inhibition of human cathepsin S.
Cathepsin S, sequence (P25774 whole entry): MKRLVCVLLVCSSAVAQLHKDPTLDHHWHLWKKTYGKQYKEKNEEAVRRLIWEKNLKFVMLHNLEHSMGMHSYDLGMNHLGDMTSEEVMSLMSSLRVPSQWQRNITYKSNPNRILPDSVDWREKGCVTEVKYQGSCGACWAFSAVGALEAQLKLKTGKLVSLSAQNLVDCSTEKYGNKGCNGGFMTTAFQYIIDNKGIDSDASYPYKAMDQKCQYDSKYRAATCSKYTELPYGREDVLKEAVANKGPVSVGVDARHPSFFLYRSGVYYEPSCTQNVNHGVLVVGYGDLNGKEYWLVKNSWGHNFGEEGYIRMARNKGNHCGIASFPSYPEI
The nature of assay [6]: Selectivity ratio of IC50 for human cathepsin B to IC50 for Plasmodium falciparum falcipain-2.
The nature of assay [7]: Selectivity ratio of IC50 for human cathepsin K to IC50 for Plasmodium falciparum falcipain-2.
A short description of assay [8]: Selectivity ratio of IC50 for human cathepsin L to IC50 for Plasmodium falciparum falcipain-2.
A short description of assay [9]: Selectivity ratio of IC50 for human cathepsin S to IC50 for Plasmodium falciparum falcipain-2.
The target of assay [10] is T3, Cysteine protease falcipain-3 (Plasmodium falciparum, UniProt Q9NAW4).
T3 sequence (Q9NAW4 whole entry): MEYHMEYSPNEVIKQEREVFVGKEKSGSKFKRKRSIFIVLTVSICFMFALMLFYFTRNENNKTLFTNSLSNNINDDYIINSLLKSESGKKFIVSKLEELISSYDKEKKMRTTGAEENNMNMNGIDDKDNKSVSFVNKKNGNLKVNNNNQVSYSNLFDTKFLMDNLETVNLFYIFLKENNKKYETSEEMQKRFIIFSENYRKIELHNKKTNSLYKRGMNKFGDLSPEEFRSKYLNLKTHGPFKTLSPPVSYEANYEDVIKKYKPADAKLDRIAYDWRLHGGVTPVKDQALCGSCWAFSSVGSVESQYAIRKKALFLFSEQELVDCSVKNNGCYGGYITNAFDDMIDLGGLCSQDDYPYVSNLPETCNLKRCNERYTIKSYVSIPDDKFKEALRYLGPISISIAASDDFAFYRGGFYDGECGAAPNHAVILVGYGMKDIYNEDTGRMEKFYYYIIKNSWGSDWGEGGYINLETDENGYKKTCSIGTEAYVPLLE
Kind of assay: Inhibition of Plasmodium falciparum falcipain-3.

Assay [11] has as its system Plasmodium falciparum. Nature of the assay: Antimalarial activity against Plasmodium falciparum infected in human erythrocytes. In kind it is functional, organism-based.

Procathepsin L, sequence (P07711 whole entry): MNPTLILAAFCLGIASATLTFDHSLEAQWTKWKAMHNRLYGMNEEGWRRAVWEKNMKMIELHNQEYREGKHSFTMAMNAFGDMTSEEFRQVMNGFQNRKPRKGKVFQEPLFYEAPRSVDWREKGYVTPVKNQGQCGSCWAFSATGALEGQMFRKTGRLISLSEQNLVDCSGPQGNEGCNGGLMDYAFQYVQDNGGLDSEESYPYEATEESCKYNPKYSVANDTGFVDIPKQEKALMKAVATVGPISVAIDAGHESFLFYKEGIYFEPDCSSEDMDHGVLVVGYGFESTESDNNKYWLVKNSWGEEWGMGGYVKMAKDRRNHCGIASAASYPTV

For `N#CC1(NC(=O)[C@H](Cc2cccnc2)NC(=O)c2ccc(-c3ccccc3)cc2)CC1`, the IC50 is 23.1 nM in assay [1]; 2750 nM in assay [2]; 202 nM in assay [3]; 1590 nM in assay [4]; 382 nM in assay [5]; 117 nM in [10]. The Ratio IC50 turned out to be 119 in assay [6], 9 in [7], 69 in assay [8] and 11 in assay [9]. For the same compound, in [11], the EC50 was more than 25 µM.

As a reminder, the IC50 is the point on the concentration scale where inhibition reaches its midpoint. Lower therefore signals greater potency in that assay. A word on the EC50: it is the concentration giving half of the maximal effect. Read a low EC50 as an effect from little substance.
